Source: patent US11219641B2 («NORMOPHARM» LIMITED LIABILITY COMPANY [RU/RU], priority 2017, dated 2022)
Like-named read-outs stand apart in the source and are kept apart here.

How the values were obtained:
[1] = system: model of chronic alcohol intoxication; test: Neurological testing (OFT, EPMT), prophylaxis series; format: in vivo, Wistar rats
Protocol: (§1) Creating a model of alcohol dependence.
(§2) Preparation dosage and application. […] Each group contained 21 animals.
(§3) Neurological testing. A general assessment of somatic and neurological status of animals was performed in all examined groups.
(§4) In the open field test (OFT), vertical activity, horizontal activity, frequency of dipping into the holes (a hole exploratory test or “burrow reflex”), grooming frequency, and frequency of central zone entries were registered. In OFT, an animal was placed in one and the same square located near the wall. An exposure time for each animal in the model was 5 min. A round OF represented an arena 1 m in diameter and a wall of 0.4 m height with the floor divided into sectors. Three zones were marked in the open field: central, intermediate (6 sectors), peripheral (12 sectors). Two 60 W lamps were located at a height of 1.5 m from the chamber floor over the central field segments. Horizontal activity in the central and peripheral zone, vertical activity, grooming frequency, frequency of defecation, burrow reflexes were fixed during the test. The walls and floor were treated with a wet and dry cloth after each animal.
The time spent in the open and closed arms and in the maze center, duration of grooming in the closed arm, a number of grooming episodes in the closed arm were registered during the elevated plus maze test (EPMT). […]

[2] = system: model of chronic alcohol intoxication; conditions: after 7 days, treatment series
Protocol: (§5) Materials and Methods. White Wistar male rats weighing 200-250 g (n=168) were used as a model object. The investigation was approved by ethical committee of Federal State Budgetary Educational Institution of Higher Professional Education “Ivanovo State Medical Academy”, the Ministry of Health of the Russian Federation” on Mar. 15, 2016; all procedures and experiments on rats were conducted in compliance with the international rules of treating animals used for scientific purposes. Animals were housed in equal rooms in cages of 7 rats in each at 19-21° C. Animals were given 40-50 g of a mixed fodder per animal every day.
as §1, §2, §3
The time spent in the open and closed arms and in the maze center, duration of grooming in the closed arm, a number of grooming episodes in the closed arm were registered during the elevated plus maze test (EPMT). The tested object was placed in the center of EPM with its nose towards the open arm. The time of testing the animals in the EPM amounted to 5 min. The apparatus used in the test consisted of two arms with an open area at the site of their crossing. One of the maze arms had closed compartments. The maze was installed at a height of 1 m from the floor. The time spent in the open and closed arm, grooming frequency, and rearing frequency were registered.

[3] = system: damaged neurocytes of the pyramidal layer of the forebrain cortex; test: Morphometric histological analysis of forebrain cortex neurocytes, prophylaxis series; format: in vivo, Wistar rats; conditions: 5 mg/kg, prophylactic application; placebo group 34.8%
Protocol: as §1, §2
Histological analysis of the nervous tissue. The brain after craniotomy was wholly removed and fixed in a 10% solution of neutral formalin, in 24 hours a zone of precentral gyrus of the forebrain was exposed by frontal incisions. Preparation of nerve tissue specimens was performed according to a standard procedure (dehydration in ethyl alcohol, xylene) with subsequent fabrication of paraffin blocks. Histological sections of 6 μm thick made on a sliding Microm microtome were stained with hematoxylene and eosin. Section duplicates were Nissl-stained with a reagent kit (Biovitrum Co.) and impregnated with silver. Histological sections were morphometrically examined using BioVision image analyzer (Austria) for counting damaged neurocytes of the pyramidal layer of the forebrain cortex in 10 various fields of vision with subsequent statistical processing of the results. Microphotographs were obtained with the help of the research Micros microscope and DCM 900 digital ocular camera.

[4] = system: model of chronic alcohol intoxication; conditions: treatment series
Protocol: as §5, §1, §2, §3, §4

[5] = Wistar rats, literature (Ostrenko et al.); cited from earlier work
[6] = system: model of chronic alcohol intoxication; test: Observation of abstinence after alcohol withdrawal, treatment series; conditions: after alcohol solution withdrawal, 5, 10, 30 mg/kg
Protocol: Creating a model of alcohol dependence. The criterion for selecting rats, along with the absence of obvious abnormalities in the state and behavior, was an initial preference for 6% ethyl alcohol over tap water. To determine this preference, a preliminary experiment was conducted during 3 days in the individual cages with a free access to both liquids. Once a selection has been done, 6% ethyl alcohol was offered as the only source of liquid, a week later the concentration of alcohol was increased to 15%. After 2 weeks, alcohol was replaced by tap water.
Preparation dosage and application. The experiment was carried out in two series «prophylaxis» and «treatment» with four groups in each series: (1) dose 30 mg/kg (experimental group 1), (2) dose 10 mg/kg (experimental group 2), (3) dose 5 mg/kg (experimental group 3), (4) placebo group. In the experiments of “prophylaxis” series, the preparation was introduced concurrently with model creation, while in the experiments of “treatment” series it was done after model creation. Each group contained 21 animals. Said preparation was introduced intragastrically via a probe once a day in volume of 0.5 ml per each animal for 14 days.
“Treatment” represents a more rigid model of alcohol intoxication for evaluation of the preparation efficacy.

[7] = system: model of chronic alcohol intoxication; conditions: prophylaxis series
From the text: as §1, §2

[8] = 5 mg/kg intragastrically once a day
[9] = 10 mg/kg intragastrically once a day
[10] = 30 mg/kg intragastrically once a day
[11] = 5 mg/kg intragastrically once a day, after 7 days
[12] = 10 mg/kg intragastrically once a day, after 7 days
[13] = 30 mg/kg intragastrically once a day, after 7 days

Q: For `O=C1O[C@H]([C@@H](O)CO)C([O-])=C1O.[Li+]` [lithium ascorbate], which “dose from which effective prophylaxis of neurological disorders was noted” value ([1]; introduced with alcohol for 2 weeks) is on record?
A: ≥ 5 mg/kg

Q: What about the “vertical activity in neurological tests” value ([1]; various dosages during 2 weeks) of the same molecule?
A: increased vertical activity

Q: And the “Grooming frequency (EPMT)” value [2, 8]?
A: 9.1 times

Q: And the “Time spent in the closed arm (EPMT)” value [2, 8]?
A: 270.67 s

Q: And the “Time spent in the open arm (EPMT)” value [2, 8]?
A: 27.73 s

Q: And the “Grooming frequency (EPMT)” value [2, 9]?
A: 6.3 times

Q: And the “Time spent in the closed arm (EPMT)” value [2, 9]?
A: 265.19 s

Q: And the “Time spent in the open arm (EPMT)” value [2, 9]?
A: 34.81 s

Q: And the “Vertical activity (EPMT)” value [2, 9]?
A: 1.5

Q: And the “Grooming frequency (EPMT)” value [2, 10]?
A: 5.8 times

Q: What about the “Time spent in the closed arm (EPMT)” value [2, 10] of the same molecule?
A: 259.01 s

Q: And the “Time spent in the open arm (EPMT)” value [2, 10]?
A: 38.26 s

Q: What about the “amount of the damaged cortex cells” value [3] of the same molecule?
A: 18.5%

Q: And the “Frequency of dipping into the hole (OFT)” value [4, 11]?
A: 1.1 times

Q: What about the “Grooming frequency (OFT)” value [4, 11] of the same molecule?
A: 8.9 times

Q: What about the “Horizontal locomotor activity central (OFT)” value [4, 11] of the same molecule?
A: 1.0

Q: And the “Horizontal locomotor activity peripheral (OFT)” value [4, 11]?
A: 19.3

Q: What about the “Number of boluses (OFT)” value [4, 11] of the same molecule?
A: 15.1 pcs

Q: And the “Frequency of dipping into the hole (OFT)” value [4, 12]?
A: 1.9 times

Q: And the “Horizontal locomotor activity central (OFT)” value [4, 12]?
A: 1.8

Q: What about the “Number of boluses (OFT)” value [4, 12] of the same molecule?
A: 12.6 pcs

Q: What about the “Vertical locomotor activity (OFT)” value [4, 12] of the same molecule?
A: 1.4

Q: And the “Frequency of dipping into the hole (OFT)” value [4, 13]?
A: 2.0 times

Q: What about the “Horizontal locomotor activity central (OFT)” value [4, 13] of the same molecule?
A: 1.9

Q: What about the “Number of boluses (OFT)” value [4, 13] of the same molecule?
A: 12.2 pcs

Q: And the “Vertical locomotor activity (OFT)” value [4, 13]?
A: 1.6

Q: What about the “dose at which adequate efficacy was noted, treatment purposes” value ([4]; doses 5, 10, 30 mg/kg compared) of the same molecule?
A: 5 mg/kg

Q: What about the toxicity class [5] of the same molecule?
A: Class 5

Q: And the cramps during abstinence [6]?
A: No cramps were noted

Q: And the “number of aggressive incidents during abstinence” value [6]?
A: reduced the number of aggressive incidents

Q: And the “catecholamine content in the animal blood” value ([7]; applied together with alcohol)?
A: inhibited the increase of catecholamine content

Q: And the “MDA levels in blood serum” value [7]?
A: decreased MDA levels
